According to patent US10000566B2, “Anti-CD33 antibodies and methods for treatment of acute myeloid leukemia using the same” (IMMUNOGEN INC., priority 2002, dated 2018):
Entries after “also recorded” stand apart in the source; their conditions may differ.

Experiments:
[1] = in vivo; cited from earlier work
large HL-60 tumors = test: Large HL-60 tumor xenograft model in SCID mice; assay type: in vivo; details: for toxicity of higher drug doses: not shown; for effect on tumor growth: standard chemotherapeutic agents, tumor volume >400 mm^3
Experimental: (§1) Subcutaneous tumor model—HL-60 human promyelocytic leukemia cells (5×10^6 cells in 0.1 mL) were subcutaneously inoculated into the right flank of female SCID mice. Mice were treated by intravenous injection into a lateral tail vein starting when tumors reached 100 mm^3 in size (400 mm^3 in large tumor model). Tumor size and mouse body weight were measured twice per week. Survival model—HL-60 cells (5×10^6 cells in 0.1 mL) were intravenously injected into the lateral tail vein of female SCID mice. Eleven days after tumor cell injection treatment was started. Mice were checked every day for moribund, tumor mass, or death. Body weight was measured twice per week.
Tumors were allowed to grow to a tumor volume of >400 mm^3 prior to the initiation of treatment. In addition, a comparison of the activity of My9-6-DM1 with standard chemotherapeutic drugs was conducted. […]

[2] = biological target: T1, CD33 on CD33-positive U-937 cells (Homo sapiens, UniProt P20138); test: Competition binding of 125I-labeled muMy9-6 to U-937 cells
T1 construct: endogenous in cells; host or cells: U-937 human histiocytic lymphoma cell line (ATCC CRL-1953.2)
T1 sequence (P20138 18-364): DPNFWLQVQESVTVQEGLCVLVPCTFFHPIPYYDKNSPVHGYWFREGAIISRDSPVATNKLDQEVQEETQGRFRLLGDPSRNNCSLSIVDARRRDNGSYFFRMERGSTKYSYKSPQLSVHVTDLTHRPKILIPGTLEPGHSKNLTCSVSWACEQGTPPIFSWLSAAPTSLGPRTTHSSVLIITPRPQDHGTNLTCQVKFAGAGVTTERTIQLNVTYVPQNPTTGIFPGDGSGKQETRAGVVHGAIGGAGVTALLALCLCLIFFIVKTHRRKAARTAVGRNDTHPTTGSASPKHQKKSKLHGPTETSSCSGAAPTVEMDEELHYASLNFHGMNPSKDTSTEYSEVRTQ
Experimental: The My9-6 antibody has further been functionally characterized and shown to bind with high affinity to CD33 on the surface of CD33-positive U-937 cells (FIG. 1). ^125I-labeled My9-6 binds to U-937 cells and it is competed off the cells by unlabeled My9-6 and the previously characterized anti-CD33 antibody My9 (BioGenex, cat. no. 267M).
To further ascertain its specificity for binding to the CD33 antigen, a competition binding experiment was performed between labeled muMy9-6 and the commercially available anti-CD33 antibody My9. The binding experiment was performed using the method described by Goldmacher et al. (1989, J. Cell. Physiol. 141, 222-234). Murine My9-6 antibody was radiolabeled with ^125I using the Iodo-gen technique (Fraker, P. J. and Speck, J. C., 1978, Biochem. Biophys. Res. Commun. 80, 849-857). A constant amount (3×10^−9 M) of ^125I-labeled muMy9-6 was mixed with increasing concentrations of non-radioactive antibody, either unlabeled muMy9-6 or unlabelled My9, and the mixtures were incubated with cells (1×10^6 cells per sample) at 4° C. for 30 min. […] The cell pellet was then removed by cutting the centrifuge tubes at the oil interface and was used to measure the cell-associated radioactivity on a gamma-counter (model RIAgamma 1274 from LKB). The cell-associated radioactivity measured was […] against the concentrations of the unlabelled, competing antibodies. […]

[3] = test system: human HL-60 tumor cell xenografts; test: Subcutaneous HL-60 tumor xenograft model in SCID mice; assay type: in vivo
Experimental: as §1
The efficacy of My9-6-DM1 in vivo was determined using SCID mice bearing human HL-60 tumor cell xenografts. HL-60 cells were injected subcutaneously and tumors were allowed to grow to an average size of 100 mm^3. Dosage is expressed as mg antibody in the conjugate, which corresponds to a DM1 dose of approximately 15 μg DM1 per mg of antibody. Tumor volume was measured as an indication of treatment efficacy and mouse body weight was monitored to indicate toxicity due to treatment.

[4] = test system: HL-60 cells injected intravenously; test: HL-60 cell mouse survival model; assay type: in vivo, SCID mice; details: treatment starting 11 days after cell injection
Experimental: FIGS. 24A & B show anti-tumor efficacy of My9-6-DM1 compared with Gentuzumab ozogamicin and standard chemotherapy in an HL-60 survival model. HL-60 cells were intravenously injected into SCID mice. Indicated treatments were started 11 days following injection of cells. Treatments were i.v. daily ×5 except for Gentuzumab ozogamicin (Q4D×3).
as §1
While the efficacy of My9-6-DM1 in the tumor xenograft model is striking, it is also of interest to look at the activity of the conjugate in a mouse survival model where HL-60 cells are injected directly into a mouse tail vein. In this model, control mice die between 30 and 50 days after cell injection. […] However, even in this model, standard chemotherapy provided no significant survival enhancement (FIG. 24B).

[5] = biological target: T2, CD33 on HL-60 membranes or whole cells (Homo sapiens, UniProt P20138); test: Direct binding assays on HL-60 membranes and HL-60 whole cells
T2 construct: endogenous in cells; host or cells: HL-60 human leukemic cell line (whole cells; plasma membranes prepared from HL-60)
T2 sequence (P20138 18-364): as above
Experimental: HL-60 cells were harvested from T75 flasks (NUNCLON™, cat. no. 153732), and centrifuged at about 300×g for five minutes in an Omnifuge RT tabletop centrifuge (Haereus Separations, Germany), at 4° C. The cells were resuspended at a density of 3×10^6 cells per mL in FACS buffer, comprised of 2% (v/v) goat serum (Sigma Chemical Co., St Louis, Mo.) in MEM Alpha Medium, supplemented with L-glutamine (Life Technologies, Grand Island, N.Y.). Using a multichannel pipetor, 3×10^5 cells were added to wells of a Falcon 96-well round bottom plate (cat. no. 3077) and then placed on ice. Using a Falcon 96-well flexible assay plate (cat. no. 353911), eleven twofold serial dilutions of each test or control article were prepared in duplicate in FACS buffer, from a starting concentration of 2×10^−8 M. Then, 100 μl of either test or control article was mixed with the cells. Control wells only received FACS buffer. The plate was incubated on ice for one hour, and then centrifuged for five minutes at 300× g, in a refrigerated centrifuge. Reagents were removed from the plate wells by quick inversion over a waste beaker containing 10% bleach. […] The assay plate was then analyzed on a FACScan flow cytometer interfaced with an automated 96-well sampling device (Becton Dickinson, Mountain View, Calif.). […]

**Q.** Which “toxicity in pre-clinical models” value [1] does the source give for calicheamicin here?
**A.** hepatotoxicity

**Q.** Which “toxicity of higher drug doses” value (large HL-60 tumors) does the source give for `Nc1ccn([C@@H]2O[C@H](CO)[C@@H](O)[C@@H]2O)c(=O)n1` [Ara-C] here?
**A.** profoundly toxic

**Q.** And the “effect on tumor growth” value (large HL-60 tumors)?
**A.** little effect on tumor growth

**Q.** With “My9-6: murine anti-CD33 monoclonal antibody, IgG1 kappa, hybridoma ATCC PTA-4786” as the molecule, how does the “competition binding curves against 125I-labeled muMy9-6” value ([2]; 3×10^−9 M 125I-muMy9-6, U-937 cells, 4° C., 30 min) read?
**A.** very similar competition binding curves

**Q.** And the “binding affinity / avidity for CD33” value ([2]; CD33-positive U-937 cells)?
**A.** very similar binding avidities; also recorded: high affinity

**Q.** And the “effect on HL-60 tumor growth compared to vehicle control” value ([3]; antibody alone, dose not stated)?
**A.** no effect on HL-60 tumor growth

**Q.** And the “effect on tumor cell growth” value ([3]; antibody alone, even at 50 mg/kg)?
**A.** no effect on tumor cell growth

**Q.** And the “effect on tumor growth” value ([3]; unconjugated antibody 23 mg/kg daily for 5 days)?
**A.** no affect on tumor growth

**Q.** What about the effect on survival [4] of the same molecule?
**A.** modest increase in survival

**Q.** Which “mice that died two days after treatment” value ([3]; 350 μg/kg daily for 5 days) does the source give for `COc1cc2cc(c1Cl)N(C)C(=O)C[C@H](OC(=O)[C@H](C)N(C)C(C)=O)[C@]1(C)O[C@H]1[C@H](C)[C@@H]1C[C@@](O)(NC(=O)O1)[C@H](OC)/C=C/C=C(\C)C2` [maytansine, reference compound] here?
**A.** Three of 6

**Q.** And the “delay in tumor growth” value ([3]; 350 μg/kg daily for 5 days, remaining 3 mice)?
**A.** approximately 10 days

**Q.** And the effect on survival [4]?
**A.** significant impact on mouse survival

**Q.** What about the “mice that died shortly after the start of treatment” value [4] of the same molecule?
**A.** 2 of 8

**Q.** With `CC(=O)[C@]1(O)Cc2c(O)c3c(c(O)c2[C@@H](O[C@H]2C[C@H](N)[C@H](O)[C@H](C)O2)C1)C(=O)c1ccccc1C3=O` [idarubicin] as the molecule, how does the “toxicity of higher drug doses” value (large HL-60 tumors) read?
**A.** profoundly toxic

**Q.** What about the “effect on tumor growth” value (large HL-60 tumors) of the same molecule?
**A.** little effect on tumor growth

B1: V1.0: most human resurfaced version of My9-6, all ten human surface residues (antibody, V domains shown)
VH: QVQLQQPGAEVVKPGASVKMSCKASGYTFTSYYIHWIKQTPGQGLEWVGVIYPGNDDISYNQKFQGKATLTADKSSTTAYMQLSSLTSEDSAVYYCAREVRLRYFDVWGQGTTVTVSS
VL: EIVLTQSPGSLAVSPGERVTMSCKSSQSVFFSSSQKNYLAWYQQIPGQSPRLLIYWASTRESGVPDRFTGSGSGTDFTLTISSVQPEDLAIYYCHQYLSSRTFGQGTKLEIKR
**Q.** For B1, which “binding affinity relative to wild type” value ([5]; HL-60 membranes and whole cells) is on record?
**A.** near wild type binding affinities

**Q.** What about the “KD value compared with murine My9-6” value ([5]; HL-60 membranes or whole cells, numbers only in FIG. 17) of the same molecule?
**A.** fall within the experimental error of the KD value of murine My9-6
